# Test results as given in patent publication US5888993A, “Vanadium compounds in the treatment of elevated blood sugar levels” (The University of British Columbia, priority 1997, dated 1999).
# Where “and” joins values, the source holds several entries; their conditions need not be identical. Equal entries are not always repeated.
# How the values were obtained:
# [1] = log p (partition coefficient); format: physicochemical
# [2] = test system: diabetic rats; assay: Blood glucose response after i.p. injection in STZ diabetic rats; format: in vivo, rat
# Method: Initial experiments were carried out to determine pharmacological effectiveness of BMOV. Using male rats, made diabetic by the injection of streptoxoticin (STZ) at a dose of 60 mg/kg i.v., BMOV was initially given by intraperitoneal (i.p.) injection as a suspension in 1% methyl cellulose.
# Two animals developed hypoglycemia.
# [3] = test system: diabetic rats; assay: BMOV in drinking water, STZ diabetic rats; format: in vivo, rat
# [4] = test system: diabetic rats; assay: Prolonged administration in drinking water (77 days), STZ diabetic rats; format: in vivo, rat
# Method: (§1) BMOV was administered to normal and diabetic rats in drinking water.
# (§2) The study was composed of 4 groups of animals Control (8 animals), Control-Treated (11 animals), Diabetic (11 animals) and Diabetic-Treated (12 animals). The diabetic state was induced by injecting STZ at 60 mg/kg dissolved in 0.9% NaCl I.V. via the tail vein to anaesthetized rats. The two control groups were injected with 0.9% NaCl I.V. through the tail vein. The diabetic state was determined with a "Testape"™ test at 3 days post-injection and later confirmed with a glucometer test. Blood glucose and insulin assays were carried out post-injection over the course of the study. Treatment according to the invention was started 1 week after determination of the diabetic state.
# (§3) Treated diabetic animals received between 0.3 and 0.5 mmol/kg of the compound/day in drinking water over a 77 day period. Treated control animals received a slightly lower dose (0.2-0.3 mmol/day) over the same period. The concentration of BMOV in the drinking water was varied between 1.6 and 3.2 mM. The reason for the differing doses in the two sets of animals is that the two groups drank different amounts of water daily; it was difficult to attain the same dose in both groups.
# (§4) 1. As indicated above, 4 groups of animals were studied, but the diabetic-treated group was sub-divided to diabetic-treated responders (8 animals) and diabetic-treated non-responders (4 animals). Curve 1 is the control group, curve 2 the control-treated group, curve 3 the diabetic group, curve 4 is the diabetic-treated responders and curve 5 is the diabetic-treated non-responders. […] Treatment began with a […] solution of the compound. […] On day 24, the concentration was increased to 2.37 mM (0.7 mg/ml).
# [5] = test system: normal rats; assay: Prolonged administration in drinking water (77 days), normal (control) rats; format: in vivo, rat
# Method: as §1, §2, §3, §4
# [6] = test system: non diabetic rats; assay: Previous laboratory studies of BMOV in non diabetic rats; format: in vivo, rat; conditions: 0.75 mg/ml
# Method: 11 SHR and 12 WKY rats (all male) were procured at 4 weeks of age from Charles River, Canada. The animals were divided into four experimental groups: SHR (untreated n=5), SHRO (BMOV treated n=6), WKY (untreated n=8) and WKYO (BMOV treated n=4). Chronic BMOV treatment was commenced on the SHRO and WKYO groups at 5 weeks of age. The rats were given BMOV (0.75 mg/ml) ad libitum in the drinking water.
# [7] = Water solubility
# [8] = diabetic-treated non-responders, pretreatment, mean ± S.E.M.
# [9] = diabetic-treated non-responders, week 6, mean ± S.E.M.
# [10] = diabetic-treated responders, pretreatment, mean ± S.E.M.
# [11] = diabetic-treated responders, week 6, mean ± S.E.M.
# [12] = control treated, week 6, mean ± S.E.M.
smiles,measurement,setting,value
"Cc1occc(=O)c1[O-].Cc1occc(=O)c1[O-].[O]=[V+2] [BMOV, Bis(maltolato)oxovanadium(IV)]",log p,[1],0.12
same,animals that developed hypoglycemia,[2]; 15 mg/kg i.p.,Two animals
same,rats responding with a decrease in blood glucose,"[2]; 15 mg/kg i.p. (0.05 mmol/kg), suspension in 1% methyl cellulose",Nine out of the twelve
same,fluid intake,[3]; 0.46-0.92 mmol/kg,decreased to normal
same,blood glucose reduction,"[3]; 0.46-0.92 mmol/kg (150-300 mg/kg), four diabetic rats",reduced blood glucose in four diabetic rats into the normal range
same,"weight, diabetic-treated groups vs all other groups","[4]; both diabetic-treated groups, by day 7",significant difference
same,"plasma triglyceride and cholesterol, in words",[4]; diabetic animals,restored to control values
same,fluid intake,[4]; diabetic treated (diabetic about 275 ml/rat),about 60 ml/rat
same,food intake,[4]; diabetic-treated (from greater than 50 grams per day),about 30 grams per day
same,"weight, non-responders vs other 4 groups","[4]; diabetic-treated non-responders, by day 28",significantly different from the other 4 groups
same,Cholesterol,[4]; [8],1.51 ± 0.07 mmol/L
same,Triglyceride,[4]; [8],1.85 ± 0.41 mmol/L
same,Cholesterol,[4]; [9],1.48 ± 0.09 mmol/L
same,Triglyceride,[4]; [9],2.31 ± 0.19 mmol/L
same,hypoglycemia,"[4]; diabetic-treated responders, before day 18, treatment withheld",developed in several animals
same,"blood glucose, in words","[4]; diabetic-treated responders, by day 14",euglycemic
same,"weight, responders vs diabetic group","[4]; diabetic-treated responders, by day 28",no longer a significant difference
same,Cholesterol,[4]; [10],1.67 ± 0.10 mmol/L
same,Triglyceride,[4]; [10],1.10 ± 0.09 mmol/L
same,Cholesterol,[4]; [11],1.58 ± 0.11 mmol/L
same,Triglyceride,[4]; [11],1.70 ± 0.18 mmol/L
same,weight gain,"[4]; diabetic-treated, 77 days, drinking water",140 g
same,"food consumption vs control, in words","[4]; diabetic-treated, at any time",no significant difference
same,Insulin values,"[4]; diabetic-treated, day 28 of BMOV study",22.0 ± 1.6 μU/ml
same,food intake,"[4]; diabetic-treated, day 77",28±1.6 grams per day
same,animals responding (blood glucose lowered),"[4]; diabetic-treated, drinking water",8 out of the 12 and eight of the twelve
same,"fluid consumption vs control, in words","[4]; diabetic-treated, throughout",no significant difference
same,blood glucose,"[4]; non-responders (four of the twelve rats), on any given day",6 to 30 mM
same,"blood glucose, in words","[4]; responders, by day 24",normal blood glucose
same,blood glucose,"[4]; responders, from day 7 onwards (from 20 mM)",less than 10 mM
same,cataracts,"[4]; treated animals not controlled by the drug, end of 77 days",One of the four
same,cataracts,"[4]; treated diabetic rats controlled by the drug, end of 77 days (untreated diabetic 5/11)",0/8
same,"insulin vs control, in words",[5]; control treated,significantly lower
same,fluid intake,"[5]; control treated, day 77 (control 62.7±7.4)",33.6 ± 7.2 mL
same,Cholesterol,"[5]; control treated, pretreatment (day before treatment started), mean ± S.E.M.",1.64 ± 0.08 mmol/L
same,Triglyceride,"[5]; control treated, pretreatment, mean ± S.E.M.",1.21 ± 0.14 mmol/L
same,Cholesterol,[5]; [12],1.60 ± 0.06 mmol/L
same,Triglyceride,[5]; [12],2.04 ± 0.22 mmol/L
same,food intake,[5]; control-treated (control 29±0.1),25.5±0.3 grams per day
same,weight gain,"[5]; control-treated, 77 days, drinking water (control 250 g)",200 g
same,"fluid consumption vs all other groups, in words","[5]; control-treated, by day 63",significant difference
same,"weight gain, in words","[5]; control-treated, from day 56",significantly decreased weight gain
same,"food consumption vs all other groups, in words","[5]; control-treated, from day 63 on",significant difference
same,plasma insulin levels,[6],sufficient to lower plasma insulin levels
same,"water solubility, in words",[7],quite water-soluble
same,water solubility,[7]; water,about 7 mM and ~2 mg/mL
